Numbers after ± are expanded uncertainties.
Conditions: 298.15 K; 101.33 kPa; Liquid

Compound	mass density
CCCCCCCCCCCC [dodecane]	745.41 ± 0.78 kg/m3
Cc1ccccc1 [toluene]	862.35 ± 0.24 kg/m3
CO [methanol]	786.62 ± 0.31 kg/m3
C=C(C)[C@H]1CC=C(C)CC1 [(R)-1-methyl-4-(1-methylethenyl)cyclohexene]	837.31 ± 1.3 kg/m3

Further lines, results first:

mass density	Compound
866.84 ± 0.62 kg/m3	C=C1CC[C@H]2C[C@@H]1C2(C)C [(1S,5S)-6,6-dimethyl-2-methylenebicyclo[3.1.1]heptane]
853.88 ± 0.63 kg/m3	CC1=CC[C@H]2C[C@@H]1C2(C)C [(S)-2-pinene]

Source: the NIST ThermoML archive (doi:10.1021/je0502391)
